The values that follow come from ChEMBL document CHEMBL3822455, “Aryl or heteroaryl substituted aminal derivatives of HCV NS5A inhibitor MK-8742” (Bioorg Med Chem Lett, 2016).

The test system of data set [1] is Hepatitis C virus. Description: Antiviral activity against HCV genotype 1a assessed as replicon RNA level measured after 3 days by real-time PCR method. It is filed as functional, organism-based, Hepacivirus hominis. The settings on record: subtype 1a, 72 h. (In antiviral work, replicon cells carry a viral genome segment that copies itself.)
Data set [2] concerns Hepatitis C virus. Description: Antiviral activity against HCV genotype 1b assessed as replicon RNA level measured after 3 days by real-time PCR method. It is filed as functional, organism-based, Hepacivirus hominis. Particulars: 72 h.
In data set [3] the test system is Canis familiaris. Description: Oral bioavailability in beagle dog at 5 mg/kg. Particulars: in vivo. It is filed as ADME, organism-based, Canis lupus familiaris.
The subject of data set [4] is Hepatitis C virus. The experiment in a line: Antiviral activity against HCV genotype 1a harboring NS5A L31V mutant assessed as replicon RNA level measured after 3 days by real-time PCR method. It is filed as functional, organism-based, Hepacivirus hominis. The settings on record: subtype 1a, 72 h.
Data set [5] deals with Canis familiaris. The experiment in a line: AUC in beagle dog at 5 mg/kg, po. It is filed as ADME, organism-based, Canis lupus familiaris. The settings on record: in vivo.
For data set [6], the system named is Hepatitis C virus. Description: Antiviral activity against HCV genotype 1a harboring NS5A Y93H mutant assessed as replicon RNA level measured after 3 days by real-time PCR method. It counts as functional, organism-based, Hepacivirus hominis. The settings on record: subtype 1a, 72 h.
Data set [7] can be described thus: Half life in beagle dog at 2 mg/kg, iv or 5 mg/kg, po. It is filed as ADME, organism-based, Canis lupus familiaris. Particulars: in vivo.
Data set [8] has as its system Hepatitis C virus. Description: Antiviral activity against HCV genotype 3a assessed as replicon RNA level measured after 3 days by real-time PCR method. The settings on record: 72 h. It is filed as functional, organism-based, Hepacivirus hominis.
Data set [9] has as its system Rattus norvegicus. The experiment in a line: AUC in Sprague-Dawley rat at 5 mg/kg, po. It is filed as ADME, organism-based. The settings on record: in vivo.
The test system of data set [10] is Hepatitis C virus. Description: Antiviral activity against HCV genotype 2b assessed as replicon RNA level measured after 3 days by real-time PCR method. It counts as functional, organism-based, Hepacivirus hominis. The settings on record: 72 h.
In data set [11] the test system is Rattus norvegicus. Description: (§1) Oral bioavailability in Sprague-Dawley rat at 5 mg/kg. The settings on record: in vivo. It counts as ADME, organism-based.
Data set [12] concerns Hepatitis C virus. The experiment in a line: Antiviral activity against HCV genotype 2a assessed as replicon RNA level measured after 3 days by real-time PCR method. It counts as functional, organism-based, Hepacivirus hominis. The settings on record: 72 h.
Data set [13] deals with Hepatitis C virus. The experiment in a line: Antiviral activity against HCV genotype 4a assessed as replicon RNA level measured after 3 days by real-time PCR method. It is filed as functional, organism-based, Hepacivirus hominis. Particulars: 72 h.
Data set [14] in a line: Half life in Sprague-Dawley rat at 2 mg/kg, iv or 5 mg/kg, po. It counts as ADME, organism-based. Particulars: in vivo.
Data set [15] deals with Hepatitis C virus. The experiment in a line: Selectivity ratio of EC50 for HCV genotype 1a harboring NS5A Y93H mutant to EC50 for HCV genotype 1a. It is filed as functional, Hepacivirus hominis, subtype 1a.
A short description of data set [16]: as §1. It is filed as ADME, organism-based. The settings on record: Sprague-Dawley, in vivo.
Data set [17] is described as follows: Selectivity ratio of EC50 for HCV genotype 2b to EC50 for HCV genotype 1a. It counts as functional.
The subject of data set [18] is Hepatitis C virus. The experiment in a line: Selectivity ratio of EC50 for HCV genotype 1a harboring NS5A L31V mutant to EC50 for HCV genotype 1a. It counts as functional, Hepacivirus hominis, subtype 1a.

By EC50 is commonly meant the concentration at which the effect is half-maximal. As a reminder, the AUC is the area under the concentration-time curve, a measure of exposure. Lower therefore signals less exposure. One may read the half-life as the time in which the quantity being followed falls by half. High values mean slow decline, low ones rapid decline. On to `COC(=O)N[C@H](C(=O)N1CCC[C@H]1c1ncc(-c2ccc3c(c2)OC(c2cccc(OC)c2)n2c-3cc3cc(-c4cnc([C@@H]5CCCN5C(=O)[C@@H](NC(=O)OC)C(C)C)[nH]4)ccc32)[nH]1)C(C)C` (mixture of isomers), for which the EC50 was 0.004 nM with Hepatitis C virus [1]; 0.002 nM with Hepatitis C virus [2]; 0.04 nM in the data set with Hepatitis C virus [4]; < 2 nM in the data set with Hepatitis C virus [6]; 0.02 nM with Hepatitis C virus [8]; 0.4 nM in the data set with Hepatitis C virus [10]. Besides, the EC50 in the data set with Hepatitis C virus [12] turned out to be 0.004 nM; with Hepatitis C virus [13], 0.002 nM. The F with Canis familiaris [3] is recorded as 34%; in the data set on Rattus norvegicus [11], 6%. Moreover, the AUC in the data set with Canis familiaris [5] is 5 µM·h; in the data set with Rattus norvegicus [9], 0.52 µM·h. Besides, the figures for the half-life in data set [7] and in data set [14] were 7.9 h and 4.6 h, respectively.
A word on the bioavailability: it is the share of a dose that reaches the circulation, judged against a reference dose that is usually intravenous. A low value points to little systemic uptake. For `COC(=O)N[C@H](C(=O)N1CCC[C@H]1c1ncc(-c2ccc3c(c2)OC(c2cc(OC)cc(OC)c2)n2c-3cc3cc(-c4cnc([C@@H]5CCCN5C(=O)[C@@H](NC(=O)OC)C(C)C)[nH]4)ccc32)[nH]1)C(C)C` (mixture of isomers), the EC50 with Hepatitis C virus [1] is 0.003 nM; in the data set on Hepatitis C virus [2], 0.002 nM; with Hepatitis C virus [4] it was 0.3 nM; with Hepatitis C virus [6], 0.8 nM; in the data set with Hepatitis C virus [8] it was 0.02 nM; in the data set with Hepatitis C virus [10], 0.2 nM. Further, the EC50 with Hepatitis C virus [12] is 0.002 nM; in the data set with Hepatitis C virus [13], 0.01 nM. Besides, the “Ratio EC50” value in the data set on Hepatitis C virus [15] is 267; in data set [17], 67; with Hepatitis C virus [18], 100. This compound also gave a bioavailability in [16] of 0%.
Take `COC(=O)N[C@H](C(=O)N1CCC[C@H]1c1ncc(-c2ccc3c(c2)OC(c2ccc(OC(F)(F)F)cc2)n2c-3cc3cc(-c4cnc([C@@H]5CCCN5C(=O)[C@@H](NC(=O)OC)C(C)C)[nH]4)ccc32)[nH]1)C(C)C` (mixture of isomers): the EC50 in the data set with Hepatitis C virus [1] worked out at 0.005 nM; in the data set with Hepatitis C virus [2] it was 0.011 nM; in the data set on Hepatitis C virus [4], 0.2 nM; in the data set on Hepatitis C virus [6], 3 nM; with Hepatitis C virus [8], 0.03 nM; in the data set on Hepatitis C virus [12], 0.005 nM. Besides, in the data set on Hepatitis C virus [13], the EC50 turned out to be 0.2 nM. Further, the exposure (AUC) in the data set with Rattus norvegicus [9] stood at 1.1 µM·h. The same compound displayed a F in the data set on Rattus norvegicus [11] of 7%. For the same compound, in data set [14], the half-life is 6.3 h.
